According to patent publication US8680159B2, “Bradykinin 1 receptor modulating compounds” (Gruenenthal GmbH, priority 2010, dated 2014):

Target: T1, B1R receptor of the rat (CHO K1 cells stably transfected with the B1R gene of the rat) (Rattus norvegicus, UniProt P97583)
T1 construct: expressed in transfected cells; host or cells: CHO K1 cells (Chinese hamster ovary), stably transfected
T1 sequence (P97583 1-337): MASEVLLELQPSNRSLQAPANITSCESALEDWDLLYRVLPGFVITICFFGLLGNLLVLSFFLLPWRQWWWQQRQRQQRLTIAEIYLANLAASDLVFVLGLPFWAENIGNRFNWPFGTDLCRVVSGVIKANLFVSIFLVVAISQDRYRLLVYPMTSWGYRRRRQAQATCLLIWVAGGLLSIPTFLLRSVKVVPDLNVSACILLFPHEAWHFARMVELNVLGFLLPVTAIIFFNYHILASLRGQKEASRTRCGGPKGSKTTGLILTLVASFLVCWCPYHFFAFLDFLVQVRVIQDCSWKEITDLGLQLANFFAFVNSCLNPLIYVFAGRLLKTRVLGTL
Experiment: Functional study on the bradykinin receptor 1 (B1R), Ca2+ fluorescence (Fluo-4) FLIPR/Novostar assay, rB1R cells
Type: cell-based
Details: CHO-K1, 10 μM, read-out: % Inhibition (r-B1R) at 10 μM
How it was run: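 Stably transfected CHO K1 cells carrying human or rat B1R were Fluo-4 loaded and Ca2+ fluorescence read by FLIPR or Novostar. Compounds were added first at 10 μM for % activation, then the EC80 agonist was applied after 6-20 min (human: Lys-Des-Arg9-bradykinin; rat: Des-Arg9-bradykinin). % inhibition is relative to maximum achievable inhibition, and IC50 comes from concentration series.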

Compared with `Cc1cc(N2CCC(N(C)C(=O)c3ccc4c(c3)C(N(C)C(=O)c3c(F)ccc(C)c3Cl)CC4)CC2)cc(C)n1` (stereo not drawn) [CC_H-327, 3-[(2-Chloro-6-fluoro-3-methyl-benzoyl)-methyl-amino]-N-[1-(2,6-dimethyl-pyridin-4-yl)-piperidin-4-yl]-N-methyl-2,3-dihydro-1H-indene-5-carboxylic acid amide], `Cc1cc(N2CCC(N(C)C(=O)c3ccc4c(c3)C(N(C)C(=O)c3cc(Cl)ccc3Cl)CC4)CC2)cc(C)n1` (stereo not drawn) [CC_H-328, 3-[(2,5-Dichloro-benzoyl)-methyl-amino]-N-[1-(2,6-dimethyl-pyridin-4-yl)-piperidin-4-yl]-N-methyl-2,3-dihydro-1H-indene-5-carboxylic acid amide] is lower in inhibition at 10 µM: 112% for the first, 111% for the second.

Going from `Cc1cc(N2CCC(N(C)C(=O)c3ccc4c(c3)C(N(C)C(=O)c3c(Cl)cccc3C(F)(F)F)CC4)CC2)cc(C)n1` (stereo not drawn) [CC_H-329, 3-[[2-Chloro-6-(trifluoromethyl)-benzoyl]-methyl-amino]-N-[1-(2,6-dimethyl-pyridin-4-yl)-piperidin-4-yl]-N-methyl-2,3-dihydro-1H-indene-5-carboxylic acid amide] to `Cc1cc(N2CCC(N(C)C(=O)c3ccc4c(c3)C(N(C)C(=O)Nc3ccc(Cl)cc3C(F)(F)F)CC4)CC2)cc(C)n1` (stereo not drawn) [CC_H-344, 3-[[[4-Chloro-2-(trifluoromethyl)-phenyl]-carbamoyl]-methyl-amino]-N-[1-(2,6-dimethyl-pyridin-4-yl)-piperidin-4-yl]-N-methyl-2,3-dihydro-1H-indene-5-carboxylic acid amide], the inhibition at 10 µM falls from 111% to 90%.

First: Cc1cc(N2CCC(N(C)C(=O)c3ccc4c(c3)C(N(C)C(=O)C3CCCCC3)CC4)CC2)cc(C)n1 (stereo not drawn) [CC_H-330, 3-(Cyclohexanecarbonyl-methyl-amino)-N-[1-(2,6-dimethyl-pyridin-4-yl)-piperidin-4-yl]-N-methyl-2,3-dihydro-1H-indene-5-carboxylic acid amide]
Second: Cc1cc(N2CCC(N(C)C(=O)c3ccc4c(c3)C(N(C)C(=O)C3CC3)CC4)CC2)cc(C)n1 (stereo not drawn) [CC_H-331, 3-(Cyclopropanecarbonyl-methyl-amino)-N-[1-(2,6-dimethyl-pyridin-4-yl)-piperidin-4-yl]-N-methyl-2,3-dihydro-1H-indene-5-carboxylic acid amide]
The inhibition at 10 µM of the first is higher: 111% for the first, 104% for the second.

Going from `Cc1cc(N2CCC(N(C)C(=O)c3ccc4c(c3)C(N(C)C(=O)CC(C)(C)C)CC4)CC2)cc(C)n1` (stereo not drawn) [CC_H-332, 3-(3,3-Dimethyl-butanoyl-methyl-amino)-N-[1-(2,6-dimethyl-pyridin-4-yl)-piperidin-4-yl]-N-methyl-2,3-dihydro-1H-indene-5-carboxylic acid amide] to `Cc1cc(N2CCC(N(C)C(=O)c3ccc4c(c3)C(N(C)C(=O)CC(C)C)CC4)CC2)cc(C)n1` (stereo not drawn) [CC_H-352, N-[1-(2,6-Dimethyl-pyridin-4-yl)-piperidin-4-yl]-N-methyl-3-[methyl-(3-methyl-butanoyl)-amino]-2,3-dihydro-1H-indene-5-carboxylic acid amide], the inhibition at 10 µM falls from 111% to 110%.

`COCC(=O)N(C)C1CCc2ccc(C(=O)N(C)C3CCN(c4cc(C)nc(C)c4)CC3)cc21` (stereo not drawn) [CC_H-333, N-[1-(2,6-Dimethyl-pyridin-4-yl)-piperidin-4-yl]-3-[(2-methoxy-acetyl)-methyl-amino]-N-methyl-2,3-dihydro-1H-indene-5-carboxylic acid amide] and `CCCC(=O)N(C)C1CCc2ccc(C(=O)N(C)C3CCN(c4cc(C)nc(C)c4)CC3)cc21` (stereo not drawn) [CC_H-353, 3-(Butanoyl-methyl-amino)-N-[1-(2,6-dimethyl-pyridin-4-yl)-piperidin-4-yl]-N-methyl-2,3-dihydro-1H-indene-5-carboxylic acid amide] are the same in inhibition at 10 µM: 84% for the first, 84% for the second.

Compared with `Cc1cc(N2CCC(N(C)C(=O)c3ccc4c(c3)C(N(C)S(=O)(=O)c3c(C)cccc3Cl)CC4)CC2)cc(C)n1` (stereo not drawn) [CC_H-335, 3-[[(2-Chloro-6-methyl-phenyl)sulfonyl]-methyl-amino]-N-[1-(2,6-dimethyl-pyridin-4-yl)-piperidin-4-yl]-N-methyl-2,3-dihydro-1H-indene-5-carboxylic acid amide], `Cc1cc(N2CCC(N(C)C(=O)c3ccc4c(c3)C(N(C)C(=O)Nc3cccc(Cl)c3Cl)CC4)CC2)cc(C)n1` (stereo not drawn) [CC_H-339, 3-[[(2,3-Dichloro-phenyl)-carbamoyl]-methyl-amino]-N-[1-(2,6-dimethyl-pyridin-4-yl)-piperidin-4-yl]-N-methyl-2,3-dihydro-1H-indene-5-carboxylic acid amide] is lower in inhibition at 10 µM: 110% for the first, 92% for the second.

First: Cc1cc(N2CCC(N(C)C(=O)c3ccc4c(c3)C(N(C)C(=O)Nc3ccccc3Cl)CC4)CC2)cc(C)n1 (stereo not drawn) [CC_H-336, 3-[[(2-Chlorophenyl)-carbamoyl]-methyl-amino]-N-[1-(2,6-dimethyl-pyridin-4-yl)-piperidin-4-yl]-N-methyl-2,3-dihydro-1H-indene-5-carboxylic acid amide]
Second: Cc1cc(N2CCC(N(C)C(=O)c3ccc4c(c3)C(N(C)C(=O)Nc3ccc(Cl)cc3Cl)CC4)CC2)cc(C)n1 (stereo not drawn) [CC_H-342, 3-[[(2,4-Dichlorophenyl)-carbamoyl]-methyl-amino]-N-[1-(2,6-dimethyl-pyridin-4-yl)-piperidin-4-yl]-N-methyl-2,3-dihydro-1H-indene-5-carboxylic acid amide]
The inhibition at 10 µM of the first is lower: 97% for the first, 107% for the second.

Going from `Cc1cc(N2CCC(N(C)C(=O)c3ccc4c(c3)C(N(C)C(=O)Nc3cccc(Cl)c3)CC4)CC2)cc(C)n1` (stereo not drawn) [CC_H-337, 3-[[(3-Chlorophenyl)-carbamoyl]-methyl-amino]-N-[1-(2,6-dimethyl-pyridin-4-yl)-piperidin-4-yl]-N-methyl-2,3-dihydro-1H-indene-5-carboxylic acid amide] to `Cc1cc(N2CCC(N(C)C(=O)c3ccc4c(c3)C(N(C)C(=O)Nc3ccc(F)c(Cl)c3)CC4)CC2)cc(C)n1` (stereo not drawn) [CC_H-346, 3-[[(3-Chloro-4-fluoro-phenyl)-carbamoyl]-methyl-amino]-N-[1-(2,6-dimethyl-pyridin-4-yl)-piperidin-4-yl]-N-methyl-2,3-dihydro-1H-indene-5-carboxylic acid amide], the inhibition at 10 µM falls from 110% to 70%.

Compared with `Cc1cc(N2CCC(N(C)C(=O)c3ccc4c(c3)C(N(C)C(=O)Nc3cc(Cl)cc(Cl)c3)CC4)CC2)cc(C)n1` (stereo not drawn) [CC_H-341, 3-[[(3,5-Dichloro-phenyl)-carbamoyl]-methyl-amino]-N-[1-(2,6-dimethyl-pyridin-4-yl)-piperidin-4-yl]-N-methyl-2,3-dihydro-1H-indene-5-carboxylic acid amide], `Cc1cc(N2CCC(N(C)C(=O)c3ccc4c(c3)C(N(C)C(=O)Nc3cc(C(F)(F)F)ccc3Cl)CC4)CC2)cc(C)n1` (stereo not drawn) [CC_H-343, 3-[[[2-Chloro-5-(trifluoromethyl)-phenyl]-carbamoyl]-methyl-amino]-N-[1-(2,6-dimethyl-pyridin-4-yl)-piperidin-4-yl]-N-methyl-2,3-dihydro-1H-indene-5-carboxylic acid amide] is lower in inhibition at 10 µM: 95% for the first, 67% for the second.

Compared with `Cc1ccc(NC(=O)N(C)C2CCc3ccc(C(=O)N(C)C4CCN(c5cc(C)nc(C)c5)CC4)cc32)c(C)c1` (stereo not drawn) [CC_H-347, 3-[[(2,4-Dimethyl-phenyl)-carbamoyl]-methyl-amino]-N-[1-(2,6-dimethyl-pyridin-4-yl)-piperidin-4-yl]-N-methyl-2,3-dihydro-1H-indene-5-carboxylic acid amide], `Cc1cc(N2CCC(N(C)C(=O)c3ccc4c(c3)C(N(C)C(=O)N(C)c3ccc(Cl)cc3Cl)CC4)CC2)cc(C)n1` (stereo not drawn) [CC_H-350, 3[[(2,4-Dichlorophenyl)-methyl-carbamoyl]-methyl-amino]-N-[1-(2,6-dimethyl-pyridin-4-yl)-piperidin-4-yl]-N-methyl-2,3-dihydro-1H-indene-5-carboxylic acid amide] is higher in inhibition at 10 µM: 57% for the first, 108% for the second.

Compared with `Cc1cc(N2CCC(N(C)C(=O)c3ccc4c(c3)C(N(C)C(=O)N(C)c3ccccc3Cl)CC4)CC2)cc(C)n1` (stereo not drawn) [CC_H-349, 3-[[(2-Chlorophenyl)-methyl-carbamoyl]-methyl-amino]-N-[1-(2,6-dimethyl-pyridin-4-yl)-piperidin-4-yl]-N-methyl-2,3-dihydro-1H-indene-5-carboxylic acid amide], `Cc1cc(N2CCC(N(C)C(=O)c3ccc4c(c3)C(N(C)S(=O)(=O)Cc3cccc(C(F)(F)F)c3)CC4)CC2)cc(C)n1` (stereo not drawn) [CC_H-355, N-[1-(2,6-Dimethyl-pyridin-4-yl)-piperidin-4-yl]-N-methyl-3-[methyl-[[3-(trifluoromethyl)phenyl]-methylsulfonyl]-amino]-2,3-dihydro-1H-indene-5-carboxylic acid amide] is higher in inhibition at 10 µM: 80% for the first, 96% for the second.

Going from `Cc1cc(N2CCC(N(C)C(=O)c3ccc4c(c3)C(N(C)C(=O)CCC3CCCC3)CC4)CC2)cc(C)n1` (stereo not drawn) [CC_H-354, 3-(3-Cyclopentyl-propanoyl-methyl-amino)-N-[1-(2,6-dimethyl-pyridin-4-yl)-piperidin-4-yl]-N-methyl-2,3-dihydro-1H-indene-5-carboxylic acid amide] to `CN(C(=O)c1ccc2c(c1)C(NC(=O)c1cc(F)ccc1Cl)CC2)C1CCN(c2ccc3cnccc3c2)CC1` (stereo not drawn) [CC_H-356, 3-[(2-Chloro-5-fluoro-benzoyl)amino]-N-(1-isoquinolin-6-yl-piperidin-4-yl)-N-methyl-2,3-dihydro-1H-indene-5-carboxylic acid amide], the inhibition at 10 µM falls from 110% to 109%.
